Values quoted from earlier work, collected in PMC7395068, “The evolution of strategies to minimise the risk of human drug-induced liver injury (DILI) in drug discovery and development” (Archives of Toxicology, 2020).
Where a name gives a salt, the structure may show the parent alone. Read-outs that look alike come from different tables or passages of the source.

Assays:
[1] = cited from earlier work
human hepatocytes = details: cited from earlier work
[2] = cited from earlier work; remark: listed apart in the source
[3] = test system: THLE or HepG2 cells, isolated mitochondria, BSEP; details: cited from earlier work
[4] = human hepatocyte imaging, ref Xu 2008
[5] = assignment in Xu 2008, ref Xu 2008
[6] = binary in vivo human DILI call, ref Chen 2016
[7] = human DILI, LTKB DILIrank category, ref Chen 2016

| Molecule | DILI +VE (5-8), DILI -VE (-4) ([1]; ref Chen 2016) | DILI severity category ([1]; ref Chen 2016) | Structural based (HCI) (human hepatocytes; In vitro Assay, ref Xu 2008) | In vivo DILI ([2]; ref Xu 2008) | further results |
| --- | --- | --- | --- | --- | --- |
| N[C@@H]1C[C@H]1c1ccccc1 (racemic) [tranylcypromine] | – | – | – | – | DILI +VE (5-8), DILI -VE (-4) ([1]; binary in vivo DILI call given beside the severity category, ref Chen 2016): +VE; DILI severity category ([1]; human DILI concern category (LTKB DILIrank), ref Chen 2016): vLess-DILI-Concern; Structural based (HCI), In vitro Assay (human hepatocytes; [4]): -VE; In vivo DILI [2, 5]: -VE |
| CC(=O)OCC[N+](C)(C)C [acetylcholine chloride] | -VE | vNo-DILI-Concern | -VE | -VE | – |
| Oc1ncnc2[nH]ncc12 [allopurinol] | +VE | vMost-DILI-Concern | +VE | +VE | Partition Hybrid HRM Score ([3]; In vitro Assay, ref Aleo 2019): +VE; Ro2 Hybrid HRM Score ([3]; In vitro Assay, ref Aleo 2019): -VE; In vivo DILI ([2]; […]): +VE; In vivo DILI ([2]; ref Aleo 2019): +VE |
| CN/C(=N/CCSCc1nc[nH]c1C)NC#N [cimetidine] | +VE | vLess-DILI-Concern | -VE | -VE | In vivo DILI ([2]; […]): +VE |
| CN(C)CCCC1(c2ccc(F)cc2)OCc2cc(C#N)ccc21 (stereo not drawn) [citalopram] | – | – | – | – | DILI +VE (5-8), DILI -VE (-4) ([1]; in vivo): +VE; DILI severity category ([1]; in vivo): vLess-DILI-Concern; Structural based (HCI) (human hepatocytes): -VE; In vivo DILI ([2]; in vivo): -VE |
| Nc1nc(Cl)nc2c1ncn2[C@H]1C[C@H](O)[C@@H](CO)O1 [cladribine] | -VE | Ambiguous DILI-concern | -VE | -VE | – |
| CN1CCC(=C2c3ccccc3C=Cc3ccccc32)CC1 [cyproheptadine] | +VE | vLess-DILI-Concern | +VE | +VE | – |
| CC(=O)N(O)CCCCCNC(=O)CCC(=O)N(O)CCCCCNC(=O)CCC(=O)N(O)CCCCCN [deferoxamine] | +VE | vLess-DILI-Concern | +VE | +VE | Partition Hybrid HRM Score ([3]; In vitro Assay, ref Aleo 2019): +VE; Ro2 Hybrid HRM Score ([3]; In vitro Assay, ref Aleo 2019): +VE; In vivo DILI ([2]; ref Aleo 2019): +VE |
| CN(C)[C@@H]1C(O)=C(C(N)=O)C(=O)[C@@]2(O)C(O)=C3C(=O)c4c(O)ccc(Cl)c4[C@@H](O)[C@H]3C[C@@H]12 [demeclocycline] | – | – | -VE | +VE | DILI +VE (5-8), DILI -VE (-4) [1, 6]: -VE; DILI severity category [1, 7]: Ambiguous DILI-concern |
| C=C1CC[C@H](O)C/C1=C/C=C1\CCC[C@]2(C)[C@@H]([C@H](C)/C=C/[C@H](C)C(C)C)CC[C@@H]12 [ergocalciferol] | -VE | vNo-DILI-Concern | -VE | -VE | Partition Hybrid HRM Score ([3]; In vitro Assay, ref Aleo 2019): -VE; Ro2 Hybrid HRM Score ([3]; In vitro Assay, ref Aleo 2019): -VE; In vivo DILI ([2]; ref Aleo 2019): -VE |
| COc1cc([C@@H]2c3cc4c(cc3[C@@H](O[C@@H]3O[C@@H]5CO[C@@H](C)O[C@H]5[C@H](O)[C@H]3O)[C@H]3COC(=O)[C@H]23)OCO4)cc(OC)c1O [etoposide] | +VE | vLess-DILI-Concern | -VE | +VE | In vivo DILI ([2]; […]): +VE; In vivo DILI ([2]; ref O'Brien 2006): +VE; In vivo DILI ([2]; ref Persson 2013): +VE; In vivo DILI ([2]; ref Tolosa 2012): +VE |
| CC(=O)OCC(=O)[C@@]1(O)CC[C@H]2[C@@H]3CCC4=CC(=O)CC[C@]4(C)[C@@]3(F)[C@@H](O)C[C@@]21C [fludrocortisone acetate] | – | – | -VE | -VE | Partition Hybrid HRM Score ([3]; In vitro Assay, ref Aleo 2019): -VE; Ro2 Hybrid HRM Score ([3]; In vitro Assay, ref Aleo 2019): -VE; In vivo DILI ([2]; ref Aleo 2019): -VE |
| NCC1(CC(=O)O)CCCCC1 [gabapentin] | +VE | vLess-DILI-Concern | -VE | -VE | In vivo DILI ([2]; ref Vorrink 2018): -VE |
| Cc1ccc(C)c(OCCCC(C)(C)C(=O)O)c1 [gemfibrozil] | +VE | vMost-DILI-Concern | +VE | +VE | – |
| NS(=O)(=O)c1cc2c(cc1Cl)NCNS2(=O)=O [hydrochlorothiazide] | – | – | – | – | DILI +VE (5-8), DILI -VE (-4) ([1]; in vivo): +VE; DILI severity category ([1]; in vivo): vLess-DILI-Concern; Structural based (HCI) (human hepatocytes): +VE; In vivo DILI ([2]; in vivo): +VE |
| CC(=O)[C@]1(O)Cc2c(O)c3c(c(O)c2[C@@H](O[C@H]2C[C@H](N)[C@H](O)[C@H](C)O2)C1)C(=O)c1ccccc1C3=O [idarubicin] | – | – | – | – | DILI +VE (5-8), DILI -VE (-4) [1, 6]: -VE; DILI severity category [1, 7]: Ambiguous DILI-concern; Structural based (HCI), In vitro Assay (human hepatocytes; [4]): -VE; In vivo DILI [2, 5]: -VE |
| CC(COc1ccccc1)NC(C)C(O)c1ccc(O)cc1 (stereo not drawn) [isoxsuprine] | – | – | – | – | DILI +VE (5-8), DILI -VE (-4) ([1]; in vivo): -VE; DILI severity category ([1]; in vivo): vNo-DILI-Concern; Structural based (HCI), In vitro Assay (human hepatocytes): -VE; In vivo DILI ([2]; in vivo): -VE |
| CC(C)NCC(O)c1cc(O)cc(O)c1 (stereo not drawn) [metaproterenol sulfate] | – | – | -VE | – | Partition Hybrid HRM Score ([3]; In vitro Assay, ref Aleo 2019): -VE; Ro2 Hybrid HRM Score ([3]; In vitro Assay, ref Aleo 2019): -VE |
| CC[C@@H](CO)NC(=O)[C@@H]1C=C2c3cccc4c3c(cn4C)C[C@H]2N(C)C1 [methysergide maleate] | – | – | -VE | -VE | Partition Hybrid HRM Score [3]: -VE; Ro2 Hybrid HRM Score [3]: -VE; In vivo DILI ([2]; ref Aleo 2019): -VE |
| Cc1ncc([N+](=O)[O-])n1CCO [metronidazole] | – | – | +VE | – | Partition Hybrid HRM Score ([3]; In vitro Assay, ref Aleo 2019): -VE; Ro2 Hybrid HRM Score ([3]; In vitro Assay, ref Aleo 2019): -VE |
| CN[C@@H](C)[C@@H](O)c1ccccc1 [pseudoephedrine] | – | – | – | – | DILI +VE (5-8), DILI -VE (-4) ([1]; in vivo): -VE; DILI severity category ([1]; in vivo): vNo-DILI-Concern; Structural based (HCI), In vitro Assay (human hepatocytes): -VE; In vivo DILI ([2]; in vivo): -VE |
| NC(=O)c1ncn([C@@H]2O[C@H](CO)[C@@H](O)[C@H]2O)n1 [ribavirin] | -VE | Ambiguous DILI-concern | -VE | -VE | Partition Hybrid HRM Score ([3]; In vitro Assay, ref Aleo 2019): -VE; Ro2 Hybrid HRM Score ([3]; In vitro Assay, ref Aleo 2019): -VE |
| CN[C@H]1CC[C@@H](c2ccc(Cl)c(Cl)c2)c2ccccc21 [sertraline] | +VE | vLess-DILI-Concern | -VE | -VE | In vivo DILI ([2]; […]): -VE |
| CC(=O)S[C@@H]1CC2=CC(=O)CC[C@]2(C)[C@H]2CC[C@@]3(C)[C@@H](CC[C@@]34CCC(=O)O4)[C@H]12 [spironolactone] | +VE | vLess-DILI-Concern | +VE | +VE | – |
| Nc1nc2nc[nH]c2c(=S)[nH]1 [thioguanine] | – | – | -VE | – | Partition Hybrid HRM Score ([3]; In vitro Assay, ref Aleo 2019): -VE; Ro2 Hybrid HRM Score ([3]; In vitro Assay, ref Aleo 2019): -VE |
| CC(C)(C)NC[C@H](O)COc1nsnc1N1CCOCC1 [timolol maleate] | – | – | – | – | Structural based (HCI), In vitro Assay (human hepatocytes; [4]): -VE; In vivo DILI [2, 5]: +VE |
| CN1C(=O)OC(C)(C)C1=O [trimethadione] | -VE | Ambiguous DILI-concern | -VE | +VE | – |
| C[C@H](CCC(=O)O)[C@H]1CC[C@H]2[C@@H]3[C@@H](O)C[C@@H]4C[C@H](O)CC[C@]4(C)[C@H]3CC[C@]12C [ursodeoxycholic acid] | -VE | Ambiguous DILI-concern | -VE | -VE | – |
| bacitracin | -VE | vNo-DILI-Concern | -VE | -VE | – |
